The source of these data is US20230242538A1, “PanK Modulators and Methods Using Same” (YALE UNIVERSITY, priority 2020, published 2023).

Like-named read-outs stand apart in the source and are kept apart here. Bounds are passed on as bounds.

In assay [1] the target is A. fumigatus enzyme (AfPanK) (Aspergillus fumigatus, UniProt Q4WWV3). Kind of assay: Inhibition of A. fumigatus pantothenate kinase (AfPanK). It counts as biochemical. Particulars: read-out: A. fum. IC50.
Assay [2] concerns HeLa cells. Kind of assay: General toxicity against HeLa cells, 72 hr. It counts as cell-based. Particulars: for EC50: Homo sapiens, HeLa. Here is the method:
(§1) Compounds of interest were assayed for their activity as inhibitors of fungal pantothenate kinase (PanK), modulators of human PanK, and general toxicity against HeLa cells.

Assay [3] relates to S. cerevisiae monster. Kind of assay: Growth inhibition of S. cerevisiae monster. Format: cell-based. Particulars: Saccharomyces cerevisiae; 200 μM of compound (μg/mL equivalent in brackets), VFM medium with no pantothenic acid, 24 h, 10^5 cells/ml. Here is the method: In Table 1, “mixed” indicates a compound that is an activator at lower concentrations and is an inhibitor at higher concentrations. % growth inhibition S. cerevisiae monster was determined at 200 μM of compound in VFM medium with no pantothenic acid at 24 h (10^5 cells/ml).

The target in assay [4] is hPanK3 (Homo sapiens, UniProt Q9H999). Description: Modulation of human PanK (hPanK3). Format: biochemical. The note with it: for IC50: Table 1; for AC50: Table 2, activation. The method, then:
as §1

Assay [5] concerns the target T1, Cab1 (Saccharomyces cerevisiae, UniProt Q04430).
T1 construct: His6; made in house
Description: Inhibition of Cab1 pantothenate kinase. Format: biochemical. The method, then: The activity of recombinant His6-tagged Cab1p and cab1^G351S was determined in vitro using the Kinase-Glo Plus Luminescent Kinase (Kinase-Glo) assay as described in Chiu, et al., 2017, Scientific Reports 7:14234. The assay measures the amount of ATP remaining in solution following the kinase reaction. Briefly, kinase buffer consisted of 100 mM Tris-HCl pH 7.4, 10 mM MgCl2, 100 μM pantothenate (PA), 100 μM ATP, and 0.5 mg/mL γ-globulin. Kinase reactions were initiated with the addition of 500 ng of purified Cab1p or Cab1^G351S in elution buffer (10 mM Tris pH 7.4, NaCl 10 mM, 500 mM imidazole). Heat-inactivated (80° C. for 20 min) Cab1p or Cab were used as controls. Samples were incubated at room temperature for 1 hour. At the end of the incubation, an equal volume (10 μL) of Kinase-Glo reagent was added to each sample, the plates were further incubated for 5 min and luminescence was recorded using BioTek SynergyMx microplate reader (excitation wavelength 485; emission wavelength 528).
as §1

Where [6] appears, read: Table 1, read-out: EC50 HeLa Tox 72 hr.
The mark [7] stands for this setting: read-out: A cer. Cab1 IC50 μM, Table 2.
Where [8] appears, read: Table 2, read-out: EC50 HeLa Tox 72 hr.

Sequence of A. fumigatus enzyme (AfPanK) (Q4WWV3 entry or part of it): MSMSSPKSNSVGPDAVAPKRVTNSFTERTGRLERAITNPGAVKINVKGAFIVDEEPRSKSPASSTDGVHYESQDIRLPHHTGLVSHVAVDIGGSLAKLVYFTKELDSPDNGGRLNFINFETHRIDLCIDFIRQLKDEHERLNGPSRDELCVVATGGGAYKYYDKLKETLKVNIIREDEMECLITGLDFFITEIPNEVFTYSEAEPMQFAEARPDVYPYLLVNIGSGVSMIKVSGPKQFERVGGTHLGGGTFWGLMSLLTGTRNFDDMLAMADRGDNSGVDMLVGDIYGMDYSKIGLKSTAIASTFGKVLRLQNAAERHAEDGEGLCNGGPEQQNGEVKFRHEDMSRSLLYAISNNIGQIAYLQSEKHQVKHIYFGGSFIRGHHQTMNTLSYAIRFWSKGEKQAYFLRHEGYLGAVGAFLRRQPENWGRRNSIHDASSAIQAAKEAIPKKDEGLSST
Sequence of hPanK3 (Q9H999 whole entry): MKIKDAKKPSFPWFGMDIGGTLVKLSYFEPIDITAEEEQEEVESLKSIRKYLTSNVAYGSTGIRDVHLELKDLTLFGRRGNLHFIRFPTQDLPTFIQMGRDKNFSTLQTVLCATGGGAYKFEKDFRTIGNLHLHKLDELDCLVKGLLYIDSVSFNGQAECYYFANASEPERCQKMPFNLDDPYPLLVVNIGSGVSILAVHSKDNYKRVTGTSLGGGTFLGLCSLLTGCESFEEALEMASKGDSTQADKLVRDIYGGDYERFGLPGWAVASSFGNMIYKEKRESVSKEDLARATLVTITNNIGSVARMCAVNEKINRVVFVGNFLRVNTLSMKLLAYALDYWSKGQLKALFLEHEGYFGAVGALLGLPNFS
T1 sequence (Q04430 whole entry): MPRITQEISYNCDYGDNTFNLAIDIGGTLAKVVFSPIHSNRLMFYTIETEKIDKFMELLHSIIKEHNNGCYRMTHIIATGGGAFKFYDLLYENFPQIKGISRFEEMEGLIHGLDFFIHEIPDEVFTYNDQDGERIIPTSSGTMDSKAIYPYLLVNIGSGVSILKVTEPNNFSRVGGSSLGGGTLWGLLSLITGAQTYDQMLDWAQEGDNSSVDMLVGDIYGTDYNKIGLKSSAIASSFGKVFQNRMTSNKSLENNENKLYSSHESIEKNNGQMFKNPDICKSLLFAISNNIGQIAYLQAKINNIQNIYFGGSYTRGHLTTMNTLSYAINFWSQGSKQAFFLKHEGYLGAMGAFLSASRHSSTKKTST

On to `CC(C)(C)c1ccc(CNc2nc3nc(CN4CCOCC4)cc(N)n3n2)cc1` [Compound A13], for which the 50% inhibitory concentration (IC50) in assay [1] (Table 1) was found to be 71 µM. Moreover, in assay [2] (setting [6]), the EC50 was > 100 µM. Further, the inhibition at 200 µM in assay [3] is 25%.
`CC(C)NCc1cc(=O)n2nc(NCc3ccc(C(C)C)cc3)nc2[nH]1` [Compound A10, 5-((isopropylamino)methyl)-2-((4-isopropylbenzyl)amino)-[1,2,4]triazolo[1,5-a]pyrimidin-7(4H)-one]: the IC50 in assay [1] (Table 1) is 53 µM. The inhibition at 200 µM in assay [3] worked out at 13%.
Regarding `COC(=O)CNC(=O)c1cc(C)nc2nc(NCc3ccc(C(C)(C)C)cc3)nn12` [Compound A8], the IC50 in assay [1] (Table 1) is > 50 µM; in assay [4], > 100 µM. The inhibition at 200 µM in assay [3] was determined as 67%.
Take `CCOc1cc(CN2CCOCC2)nc2nc(NCc3ccc(C(C)(C)C)cc3)nn12` [Compound A15]: the IC50 in assay [1] (Table 1) was found to be 98 µM. Also, the inhibition at 200 µM in assay [3] came to 37%.
For the compound `CC(C)c1ccc(CNc2nc3[nH]c(CN4CCCC4)cc(=O)n3n2)cc1` [Compound B4, 2-((4-isopropylbenzyl)amino)-5-(pyrrolidin-1-ylmethyl)-[1,2,4]triazolo[1,5-a]pyrimidin-7(4H)-one], the IC50 in assay [1] (Table 2) is 11 µM; in assay [5], > 100 µM. Besides, in assay [2] (Table 2), the “EC50 HeLa Tox 72 hr μM” value was “Inactive”. For the same compound, in assay [4], the activity was half-maximal at 0.032 µM (AC50).
For the compound `CN1CCN(Cc2cc(=O)n3nc(NCc4ccc(C(C)(C)C)cc4)nc3[nH]2)CC1` [Compound B8], the IC50 came to 0.89 µM in assay [1] (Table 2) and 0.55 µM in assay [5] (setting [7]). In addition, the “EC50 HeLa Tox 72 hr μM” value in assay [2] (Table 2) was “Inactive”. Moreover, the activity in assay [4] was half-maximal at 0.16 µM (AC50).
On to `CN(C)c1cc(CN2CCOCC2)nc2nc(NCc3ccc(C(C)(C)C)cc3)nn12` [Compound B7], for which the IC50 in assay [1] (Table 2) is 44 µM; in assay [5] (setting [7]), > 100 µM. Besides, the EC50 in assay [2] (setting [8]) was > 100 µM. In addition, in assay [4], the AC50 turned out to be 0.076 µM.
As for `CC(C)(C)c1ccc(CNc2nc3nc(CN4CCOCC4)cc(OCCO)n3n2)cc1` [Compound A12], the IC50 in assay [1] (Table 1) was determined as 68 µM. The inhibition at 200 µM in assay [3] amounted to 94%.
Take `CC(=O)N1CCN(Cc2cc(=O)n3nc(NCc4ccc(C(C)(C)C)cc4)nc3[nH]2)CC1` [Compound A1]: the IC50 in assay [1] (Table 1) turned out to be 0.036 µM. In addition, the “EC50 HeLa Tox 72 hr μM” value in assay [2] (Table 1) is reported as “Inactive”. Moreover, the inhibition at 200 µM in assay [3] was 98%.
With `CC(C)(C)c1ccc(CNc2nc3nc(CN4CCOCC4)cc(OCC(N)=O)n3n2)cc1` [Compound A11], the IC50 in assay [1] (Table 1) was 62 µM. For the same compound, the inhibition at 200 µM in assay [3] was 77%.
Take `Cc1ccccc1-c1nc2[nH]c(CNc3ccccc3)cc(=O)n2n1` [Compound B3, 5-((phenylamino)methyl)-2-(o-tolyl)-[1,2,4]triazolo[1,5-a]pyrimidin-7(4H)-one]: the results for the IC50 in assay [1] (Table 2) and in assay [5] were 10 µM and > 100 µM, respectively. Also, the “EC50 HeLa Tox 72 hr μM” value in assay [2] (Table 2) was “Inactive”. For the same compound, half-maximal activity in assay [4] (AC50) was put at 0.024 µM.
In the case of `CNc1cc(CN2CCOCC2)nc2nc(NCc3ccc(C(C)(C)C)cc3)nn12` [Compound B5], the IC50 turned out to be 28 µM in assay [1] (Table 2) and 9.4 µM in assay [5] (setting [7]). Further, the EC50 in assay [2] (setting [8]) is > 100 µM. This compound registered an AC50 in assay [4] of 0.038 µM.
`Cc1cc(C(=O)NCc2cccnc2)n2nc(NCc3ccc(C(C)(C)C)cc3)nc2n1` [Compound A17]: the IC50 in assay [1] (Table 1) was ~100 µM; in assay [4], > 100 µM. In addition, the inhibition at 200 µM in assay [3] came out at 63%.
With `Cc1cc(C(=O)NCC(N)=O)n2nc(NCc3ccc(C(C)(C)C)cc3)nc2n1` [Compound A4], the 50% inhibitory concentration (IC50) was 2.4 µM in assay [1] (Table 1) and > 100 µM in assay [4]. For the same compound, in assay [3], the inhibition at 200 µM was 62%.
With `COc1cc(CN2CCOCC2)nc2nc(NCc3ccc(C(C)(C)C)cc3)nn12` [Compound A6], the IC50 in assay [1] (Table 1) was 31 µM; in assay [4], > 100 µM. In assay [2] (setting [6]), the EC50 is > 100 µM. The inhibition at 200 µM in assay [3] is 34%.
As for `CC(C)(C)OC(=O)N1CCN(Cc2cc(=O)n3nc(NCc4ccc(C(C)(C)C)cc4)nc3[nH]2)CC1` [Compound A2], the IC50 in assay [1] (Table 1) was determined as 0.083 µM. For the same compound, the “EC50 HeLa Tox 72 hr μM” value in assay [2] (Table 1) is reported as “Inactive”. The inhibition at 200 µM in assay [3] was found to be 87%.
Regarding `Cc1cc(C(=O)O)n2nc(NCc3ccc(C(C)(C)C)cc3)nc2n1` [Compound A3], the IC50 is 0.086 µM in assay [1] (Table 1) and > 5 µM in assay [4]. Also, in assay [2] (setting [6]), the EC50 is > 100 µM. Also, in assay [3], the inhibition at 200 µM stood at 87%.
As to `Cc1cc(C(=O)NCCO)n2nc(NCc3ccc(C(C)(C)C)cc3)nc2n1` [Compound A9], the IC50 in assay [1] (Table 1) is > 50 µM; in assay [4], > 100 µM. The inhibition at 200 µM in assay [3] amounted to 102%.
The like results for `Cc1cc(C(=O)NCC(=O)O)n2nc(NCc3ccc(C(C)(C)C)cc3)nc2n1` [Compound A18] were, in that order, ~100 µM, > 100 µM and 29%.
For `CC(C)c1ccc(CNc2nc3[nH]c(CN4CCOCC4)cc(=O)n3n2)cc1` [Compound B1, 2-((4-isopropylbenzyl)amino)-5-(morpholinomethyl)-[1,2,4]triazolo[1,5-a]pyrimidin-7(4H)-one], the IC50 in assay [1] (Table 2) turned out to be 0.25 µM; in assay [5], 0.43 µM. In addition, in assay [2] (Table 2), the “EC50 HeLa Tox 72 hr μM” value is given as “Inactive”. Moreover, in assay [4], the concentration at half-maximal activity (AC50) was determined as 0.0017 µM.
As to `CC(C)(C)c1ccc(CNc2nc3[nH]c(CN4CCCCC4)cc(=O)n3n2)cc1` [Compound B9], the IC50 in assay [1] (Table 2) stood at 1.8 µM; in assay [5] (setting [7]), 30 µM. In assay [2] (setting [8]), the EC50 is > 100 µM. The same compound yielded an AC50 in assay [4] of 0.27 µM.
In the case of `Cc1cc(C(=O)Nc2ccccn2)n2nc(NCc3ccc(C(C)(C)C)cc3)nc2n1` [Compound A7], the values for the IC50 in assay [1] (Table 1) and in assay [4] were > 50 µM and > 100 µM, respectively. The inhibition at 200 µM in assay [3] was found to be 79%.
As for `CC(C)(C)c1ccc(CNc2nc3nc(CN4CCOCC4)cc(Cl)n3n2)cc1` [Compound A16], the IC50 is ~100 µM in assay [1] (Table 1) and > 100 µM in assay [4]. In addition, the EC50 in assay [2] (setting [6]) is 2.3 µM. The inhibition at 200 µM in assay [3] was found to be 80%.
`CN1CCN(Cc2cc(=O)n3nc(-c4ccc(C(C)(C)C)cc4)nc3[nH]2)CC1` [Compound A5, 2-(4-(tert-butyl)phenyl)-5-((4-methylpiperazin-1-yl)methyl)-[1,2,4]triazolo[1,5-a]pyrimidin-7(4H)-one]: the values for the IC50 in assay [1] (Table 1) and in assay [4] were 5.5 µM and > 100 µM, respectively. Besides, in assay [2] (Table 1), the “EC50 HeLa Tox 72 hr μM” value is “Inactive”. Further, in assay [3], the inhibition at 200 µM was 86%.
Turning to `CC(C)(C)c1ccc(CNc2nc3nc(CN4CCOCC4)cc(OCC(=O)O)n3n2)cc1` [Compound A14], the IC50 in assay [1] (Table 1) worked out at 78 µM. Also, the inhibition at 200 µM in assay [3] came to 49%.
`CC(C)(C)c1ccc(CNc2nc3[nH]c(CN4CCOCC4)cc(=O)n3n2)cc1` [Compound B6]: the IC50 in assay [1] (Table 2) amounted to 0.26 µM; in assay [5] (setting [7]), 0.19 µM. Further, in assay [2] (Table 2), the “EC50 HeLa Tox 72 hr μM” value is listed as “Inactive”. The compound further registered an AC50 in assay [4] of 0.058 µM.
Turning to `Cc1cc(=O)n2nc(NCc3ccc(C(C)C)cc3)nc2[nH]1` [Compound B2, 2-((4-isopropylbenzyl)amino)-5-methyl-[1,2,4]triazolo[1,5-a]pyrimidin-7(4H)-one], the half-inhibitory concentration (IC50) in assay [1] (Table 2) was 0.27 µM; in assay [5], > 100 µM. Moreover, the EC50 in assay [2] (setting [8]) is > 100 µM. In assay [4], this compound returned an AC50 of 0.0053 µM.
